Assay results taken from US6946456B2, “Methods for treating cell proliferative disorders and viral infections” (Sloan-Kettering Institute for Cancer Research, priority 2000, dated 2005).
“Also recorded” adds a separate entry of the source.

Columns and labels:
[1] = tested on: cyclin A-associated kinase activity; test: Immunoprecipitation and in vitro kinase assay (histone H1), cyclin A; type: cell-based, human; settings: MB-MDA 468, arrested cells compared to control cells
Method: (§1) Levels of mitotic cyclin expression and associated kinase activities in herbimycin arrested MB-MD468 cells were assessed using immunoblot analysis and in vitro kinase assays as described below. Cells cultured with herbimycin were enriched for mitotically arrested cells by using only the loosely adherent population in which the mitotic index was greater than 90%.
(§2) For immunoprecipitation, 100 μg of total protein was incubated with anticyclin A or anti-cyclin B1 (Santa Cruz) antibodies for 2 hours at 4° C. and then for 1 hour following the addition of protein A-Sephaliose. The immune complexes were washed 4× with lysis buffer and boiled in SDS-PAGE sample buffer for 5 min. Following SDS-PAGE, proteins were transferred onto Immobilon and analyzed by western blotting.
(§3) For in vitro kinase reactions, immune complexes were washed 4× with lysis buffer, 2× with kinase buffer (20 mM Tris pH 7.4, 7.5 mM MgCl2, 1 mM DTT) and incubated in 40 μl of kinase buffer containing 2 μg histone H1, 10 μCi [γ-^32P] ATP and 300 μM ATP for 10 min at 37° C. The reaction was stopped by the addition of SDS-PAGE sample buffer and boiled for 5 min. Proteins were resolved on SDS-PAGE, transferred onto Immobilon and exposed to autoradiography film or phosphoimager screen. Kinase activity was quantitated by FUJIX phosphoimager and MacBAS program software.

[2] = tested on: cyclin A expression; test: Immunoblot analysis of cyclin A expression; type: cell-based, human; settings: MB-MDA 468, arrested cells compared to control cells
Method: as §1
(§4) Immunoblot analysis of lysates from cells treated with DMSO, nocodazole or herbimycin were analyzed by Western blot analysis using anti-cyclin A or anti-B1 antibodies. Treated cells were harvested, washed with PBS and lysed in NP40 lysis buffer (50 mM Tris pH7.4, 1% NP40,150 mM NaCl, 40 mM NaF. 1 mM Na3VO4, 1 mM phenylmethylsulfonlylfluoride, and 10 μg/ml. each of leupeptin, aprotinin and soybean trypsin inhibitor) for 30 min on ice. Lysates were centrifuged at 15,000×g for 10 min and protein concentration determined by bicinchoninic acid protein assay (Pierce). Equal amounts of total protein were resolved by SDS-PAGE and transferred onto Immobilon PVDF membranes (Millipore) by electroblotting. Blots were blocked overnight in 5% nonfat milk in TBS-T (0.1% Tween-20 TBS, 10 mM Tris pH 7.4, 150 mM NaCl) at 4° C. and subsequently probed with either anti-cyclin A or cyclin B1 antibodies (Santa Cruz Biotechnology). Following incubation with HRP-conjugated secondary antibodies, proteins were detected by chemiluminescence (Amersham).

[3] = tested on: tumor cell lines with mutated Rb (MB-MDA 468, BT-549, DU145 and DU4475); test: Cell cycle analysis by flow cytometry of ethidium bromide-stained nuclei, tumor cell lines with mutated Rb; type: cell-based, human
Method: (§5) The human breast cancer cell lines MB-MDA 468, MCF7 and BT-549 and the colon carcinoma cell line, Colo 205, were obtained from ATCC. Breast cell lines were maintained in DME-F12 media and Colo 205 cells in RPMI; both media were supplemented with 5% fetal calf serum (BRL), 2 mM glutamine and 50 u/ml each of penicillin and streptomycin. All cells were incubated at 37° C. in 5% C02. Cells were treated for 24 hours with 250 ng/ml herbimycin A (Gibco) dissolved in DMSO or 435 nM of radicicol (Sigma). After treatment the […] and analyzed by flow cytometry. Nuclei were isolated for flow cytometry assays stained with ethidium bromide and analyzed using a Becton Dickinson fluorescence-activated cell sorter. Statistical data was obtained using Multicycle program software.

[4] = tested on: Rb-wild type cells (MCF7 and Colo 205); test: Cell cycle analysis by flow cytometry of ethidium bromide-stained nuclei, Rb-wild type tumor cell lines; type: cell-based, human; settings: for cell cycle effect in tumor cell lines: 12 tumor cell lines examined, FIG. 1A
Method: as §5

[5] = tested on: MB-MDA 468 cells; test: Immunofluorescent analysis (bisbenzimide, anti-α-tubulin, ACA/CREST); type: cell-based, human
Method: For immunofluorescent analysis, harvested cells were washed with PBS, fixed with methanol for 20 min at −20° C., washed again and blocked for 30 min with 2% BSA in PBS. Cells were then stained with anti-α-tubulin (Sigma) and anti-centromere protein antibodies (ACA/CREST) (gift of Dr. J. D. Rattner) in 2% BSA PBS for 1 hour. Following 3 washes with 0.5% BSA in PBS, cells were incubated with anti-human FITC conjugated, antimouse rhodamine conjugated antibodies (Molecular Probes) and 2 μg/ml bisbenzimide in 2% BSA in PBS for 45 min. Cells were then washed 4× with 0.5% BSA in PBS, resuspended in PBS and images captured by confocal microscopy or with a CCD camera. Images were then processed using Slidebook 3.0 and Adobe Photoshop program software.

[6] = tested on: Rb-negative MB-MDA 468 cells; test: Synchrony experiment: release from aphidicolin block, MB-MDA 468; type: cell-based, human; settings: released into drug
Method: (§6) Nuclei were isolated for flow cytometry assays stained with ethidium bromide and analyzed using a Becton Dickinson fluorescence-activated cell sorter. Statistical data was obtained using Multicycle program software.
(§7) For synchrony experiments, cells were treated with 1 μg/ml aphidicolin (Sigma) for 18 hours, washed and replated in media containing DMSO or HA.
(§8) To further confirm that the gene product of the Rb gene permits progression through mitosis in the presence of an HSP90 inhibitor, MB-MDA 468 cells were transfected with the plasmid pUHD1 0-3HGR containing full-length 4.7 kb human Rb cDNA. Rb transfectants were grown in DME-F12 media supplemented with 5% fetal calf serum (BRL), 2 mM glutamine and 50 μg/ml each of penicillin and streptomycin and 100 μg/ml hygromycin B (Boehringer Mannheim). To confirm the presence of the Rb gene product Western blot analysis was carried out using anti-Rb antibodies (Pharmingen) as described herein. Vector control, MB-MDA 468, and Rb transfected MB-MDA 468 cells were arrested with aphidicolin as described above. After release from aphidicolin arrest, transfected and non-transfected MM-MDA 468 cells were cultured in the presence of an ansamycin inhibitor as described in Example 1. Cell progression was monitored by flow cytometric analysis of ethidium bromide-stained nuclei as described above.

[7] = tested on: Rb-wild type Colo 205 cells; test: Synchrony experiment: release from aphidicolin block, Colo 205; type: cell-based, human; settings: released into drug
Method: as §6, §7

[8] = tested on: cyclin B1-associated kinase activity; test: Immunoprecipitation and in vitro kinase assay (histone H1), cyclin B1; type: cell-based, human; settings: MB-MDA 468, loosely adherent mitotically arrested cells
Method: as §1, §2, §3

[9] = tested on: Rb transfected MB-MDA 468 cells (468-7 and 468-19); test: Cell cycle analysis in Rb transfected MB-MDA 468 cells; type: cell-based, human
Method: as §8

[10] = tested on: HPV 16 E6/E7 transfected human foreskin keratinocytes; test: Cell cycle analysis in HPV 16 E6/E7 transfected human foreskin keratinocytes; type: cell-based; settings: 24 hours
Method: (§9) Primary human foreskin keratinocytes transfected with HPV-1 6 E6 and E7 were provided by Drs. H. Stöppler and R. Schlegel (Georgetown Univ.) and grown as previously described. Primary human foreskin keratinocytes or HPV 16 E6/E7 transfected human foreskin keratinoytes were treated with HA or DMSO for 24 hours and ethidium bromide stained-nuclei analyzed by flow cytometry as described above.

[11] = tested on: MB-MDA 468 cells; test: Mitotic index by bisbenzimide staining; type: cell-based, human
Method: For mitotic indices, cells were typsinized, washed with PBS and fixed with 3% paraformaidehyde in PBS for 20 min. Cells were then stained with 3 μg/ml bisbenzimide (Hoechst 33258; Sigma) for 15 min and examined under fluorescence microscopy. Mitosis was scored by the presence of condensed chromosomes.

[12] = tested on: primary human foreskin keratinocytes (HFK); test: Cell cycle analysis in primary human foreskin keratinocytes; type: cell-based; settings: 24 hours
Method: as §9

[13] = tested on: cyclin B1 protein expression; test: Immunoblot analysis of cyclin B1 expression; type: cell-based, human; settings: MB-MDA 468, compared to control
Method: as §1, §4

Structure (SMILES): COC(=O)Nc1nc2ccc(C(=O)c3cccs3)cc2[nH]1 [nocodazole]
- cyclin A-associated kinase activity [1]: slightly lower
- cyclin A expression [2]: slightly lower

Structure (SMILES): C=CCNC1=C2C[C@@H](C)C[C@H](OC)[C@H](O)[C@@H](C)/C=C(\C)[C@H](OC(N)=O)[C@@H](OC)/C=C\C=C(/C)C(=O)NC(=CC1=O)C2=O [17-AAG, 17-allylamino-(17)-demethoxygeldanamycin]
- cell cycle profiles and mitotic phenotype compared with HA ([3]; Rb-dependent): same Rb-dependent cell cycle profiles and mitotic phenotype as observed with HA
- cell cycle effect in tumor cell lines [4]: growth arrest in G1

Structure (SMILES): C[C@@H]1C[C@H]2O[C@@H]2/C=C\C=C\C(=O)Cc2c(Cl)c(O)cc(O)c2C(=O)O1 [Radicicol]
- chromosomal distribution in arrested MDA 468 cells ([5]; MDA 468 cells, radicicol-arrested): chromosomes localized to the poles as well as strewn along the spindle
- cell cycle effect in Rb-negative MDA-468 cells ([3]; MDA-468, 435 nM, 24 hours): accumulation of cells with 4n DNA content
- cell cycle effect in Rb-positive cell lines ([4]; Colo205 and MCF7, 435 nM, 24 hours): induced G1 arrest

Structure (SMILES): CO[C@H]1[C@@H](OC)C[C@H](C)[C@@H](OC)C2=CC(=O)C=C(NC(=O)/C(C)=C/C=C\[C@H](OC)[C@@H](OC(N)=O)/C(C)=C/[C@@H]1C)C2=O [HA, herbimycin A]
- chromosomes localized to the poles scored as double dots for ACA staining ([5]; 77 chromosomes localized to the poles): 87%
- spindle formation (α-tubulin staining) ([5]; arrested Rb-negative cells): arrested cells contained bipolar spindles
- chromosomal distribution (bisbenzimide and ACA/CREST staining) ([5]; arrested Rb-negative cells, in most cells): chromosomes localized both to the poles and within the spindle
- time to arrest in the next mitosis after release from aphidicolin [6]: ≤ 12 h
- cell cycle progression after release from aphidicolin block [7]: complete mitosis; also recorded: progressed through G2 and mitosis and were arrested in the next G1
- cyclin A-associated kinase activity [1]: slightly lower
- cyclin B1-associated kinase activity, elevation compared to control [8]: 5 fold
- cell cycle effect in Rb-transfectants ([9]; clones 468-7 and 468-19, asynchronous): increase in G1 and had no effect on G2/M; also recorded: no effect on G2/M in the Rb-transfectants and instead caused an increase in G1
- cell cycle progression of Rb transfectants after release from aphidicolin block ([9]; clones 468-7 and 468-19, released into drug): cycled through mitosis and entered G1; also recorded: abrogates HA-induced mitotic arrest
- cell cycle effect in E6/E7 transfectants [10]: arrested with 4n DNA content; also recorded: mitotic arrest and not G1 arrest
- cell cycle effect in tumor cell lines with mutated Rb ([3]; MB-MDA 468, BT-549, DU145 and DU4475, 250 ng/ml, 24 hours, FIG. 1B): accumulation of cells with 4n DNA content
- cell cycle effect in control transfectants ([3]; control transfectants (MB-MDA 468 cells)): accumulated with 4n DNA content
- cell cycle effect in tumor cell lines [4]: growth arrest in G1
- mitotic index of the loosely adherent population ([11]; MB-MDA 468, enriched for mitotically arrested cells): greater than 90%
- mitotic index (cells in mitosis) ([11]; MB-MDA 468 cells, treated population, control 5-10%): 60-70%
- cell cycle effect in primary HFK cells [12]: accumulate in G1
- cyclin A expression [2]: slightly lower
- cyclin B1 protein expression [13]: increased
